A short description of data set [1]: Toxicity test of oral gavage administration in Beagle dogs, 28 consecutive days. Type of data set: in vivo. Conditions: for AUC: NOAEL 3 mg/kg/time BID, 28-day test. On the procedure:
According to the general toxicology study in accordance with the NMPA “Good Laboratory Practice for Non-clinical Laboratory Studies” and FDA GLP specification (21CFR Part 58), and in line with the requirements of International Conference on Harmonization of Technical Requirements for Registration of Pharmaceuticals for Human Use (ICH) and the NMPA relevant guidelines, the toxicology study on Compound (I) was carried out to provide safety data support for the use of Compound (I) in clinical patients. The administration mode and the experimental results were as follows: […]

Data set [2] can be described thus: Rat effective dose for safety window calculation. Type of data set: in vivo.
The next data set concerns the target T1, JAK3 (Homo sapiens, UniProt P52333).
T1 sequence (P52333 1-1124): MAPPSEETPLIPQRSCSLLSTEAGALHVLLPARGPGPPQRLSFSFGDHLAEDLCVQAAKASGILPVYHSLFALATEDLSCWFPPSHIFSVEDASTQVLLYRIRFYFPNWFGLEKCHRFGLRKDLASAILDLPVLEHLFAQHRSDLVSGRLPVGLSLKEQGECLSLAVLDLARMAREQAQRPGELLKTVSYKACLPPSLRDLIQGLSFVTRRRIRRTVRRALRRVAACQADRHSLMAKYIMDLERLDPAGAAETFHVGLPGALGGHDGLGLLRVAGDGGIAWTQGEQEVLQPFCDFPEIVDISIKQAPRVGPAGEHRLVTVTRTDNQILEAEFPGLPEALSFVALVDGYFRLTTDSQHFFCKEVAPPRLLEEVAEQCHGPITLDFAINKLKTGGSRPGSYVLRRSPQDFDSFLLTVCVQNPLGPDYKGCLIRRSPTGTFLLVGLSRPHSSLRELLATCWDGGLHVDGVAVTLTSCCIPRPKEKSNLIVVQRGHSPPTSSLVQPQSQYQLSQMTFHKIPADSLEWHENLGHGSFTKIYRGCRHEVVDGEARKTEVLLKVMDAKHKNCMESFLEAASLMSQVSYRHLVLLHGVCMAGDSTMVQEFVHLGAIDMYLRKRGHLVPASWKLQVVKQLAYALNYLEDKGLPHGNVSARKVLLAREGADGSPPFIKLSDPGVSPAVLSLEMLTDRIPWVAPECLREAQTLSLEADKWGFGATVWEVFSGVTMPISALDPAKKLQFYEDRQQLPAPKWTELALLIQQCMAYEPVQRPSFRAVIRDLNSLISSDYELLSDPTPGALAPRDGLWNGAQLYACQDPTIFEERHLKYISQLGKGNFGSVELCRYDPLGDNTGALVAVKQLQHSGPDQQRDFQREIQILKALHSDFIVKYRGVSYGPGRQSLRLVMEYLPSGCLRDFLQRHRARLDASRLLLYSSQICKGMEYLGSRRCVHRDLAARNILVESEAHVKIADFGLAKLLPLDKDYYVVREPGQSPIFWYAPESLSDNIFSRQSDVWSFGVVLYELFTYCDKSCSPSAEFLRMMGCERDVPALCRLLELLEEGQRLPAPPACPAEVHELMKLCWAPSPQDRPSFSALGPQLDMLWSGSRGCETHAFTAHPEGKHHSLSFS
Kind of data set: Kinase activity inhibition test (Mobility Shift Assay). In kind it is biochemical. Conditions: 4.3 μM ATP. On the procedure: (§1) • 1. kinases: SYK, JAK1, JAK2, JAK3 and TYK2 • 2. test method
(§2) Protein kinase activity was determined by Mobility Shift Assay. Compound (I) was dissolved in DMSO and prepared into concentration gradients in 100% DMSO. By the dilution with the kinase buffer, 5 μL of Compound (I) (10% DMSO) was added to a 384-well plate at 5 folds of the final reaction concentration. 10 μL of 2.5-fold enzyme solution was added and the incubation was performed at room temperature for 10 min, followed by the addition of 10 μL of 2.5-fold substrate solution. The incubation was performed at 28° C. for 60 min and […] of stop solution was added to the 384-well reaction plate to terminate the reaction (100 mM HEPES, pH 7.5, 0.015% Brij-35, 0.2% Coating Reagent #3, 50 mM EDTA). The conversion data was copied from the Caliper EZ Reader, and converted into the inhibition data, % inhibition=(max-conversion)/(max-min)×100%, wherein, “min” is the conversion for the control sample well where the reaction was performed without adding the enzyme; and “max” is the conversion for the control well where DMSO was added. The curve was drawn with the compound concentration and the inhibition rate as the horizontal and vertical is coordinates, and the IC50 value was calculated by fitting with XLFit excel add-in version 5.4.0.8. Fitting equation:
(§3) Y=Bottom+(Top-Bottom)/(1+(IC50/X)^HillSlope).

A further data set has as its target JAK2 (Homo sapiens, UniProt O60674). The data set is described as above. Type of data set: biochemical. Conditions: 6.5 μM ATP. How it is done:
as §1, §2, §3

For the next data set, the target named is SYK (Homo sapiens, UniProt P43405). The data set is described as above. The conditions noted are these: 2 μM ATP. Type of data set: biochemical. How it is done:
as §1, §2, §3

For a further data set, the target named is JAK1 (Homo sapiens, UniProt P23458). The data set is described as above. In kind it is biochemical. Conditions: 66 μM ATP. How it is done:
as §1, §2, §3

A further data set has as its target TYK2 (Homo sapiens, UniProt P29597). The data set is described as above. In kind it is biochemical. Conditions: 16 μM ATP. On the procedure: as §1, §2, §3

JAK1, sequence (P23458 whole entry, species assumed): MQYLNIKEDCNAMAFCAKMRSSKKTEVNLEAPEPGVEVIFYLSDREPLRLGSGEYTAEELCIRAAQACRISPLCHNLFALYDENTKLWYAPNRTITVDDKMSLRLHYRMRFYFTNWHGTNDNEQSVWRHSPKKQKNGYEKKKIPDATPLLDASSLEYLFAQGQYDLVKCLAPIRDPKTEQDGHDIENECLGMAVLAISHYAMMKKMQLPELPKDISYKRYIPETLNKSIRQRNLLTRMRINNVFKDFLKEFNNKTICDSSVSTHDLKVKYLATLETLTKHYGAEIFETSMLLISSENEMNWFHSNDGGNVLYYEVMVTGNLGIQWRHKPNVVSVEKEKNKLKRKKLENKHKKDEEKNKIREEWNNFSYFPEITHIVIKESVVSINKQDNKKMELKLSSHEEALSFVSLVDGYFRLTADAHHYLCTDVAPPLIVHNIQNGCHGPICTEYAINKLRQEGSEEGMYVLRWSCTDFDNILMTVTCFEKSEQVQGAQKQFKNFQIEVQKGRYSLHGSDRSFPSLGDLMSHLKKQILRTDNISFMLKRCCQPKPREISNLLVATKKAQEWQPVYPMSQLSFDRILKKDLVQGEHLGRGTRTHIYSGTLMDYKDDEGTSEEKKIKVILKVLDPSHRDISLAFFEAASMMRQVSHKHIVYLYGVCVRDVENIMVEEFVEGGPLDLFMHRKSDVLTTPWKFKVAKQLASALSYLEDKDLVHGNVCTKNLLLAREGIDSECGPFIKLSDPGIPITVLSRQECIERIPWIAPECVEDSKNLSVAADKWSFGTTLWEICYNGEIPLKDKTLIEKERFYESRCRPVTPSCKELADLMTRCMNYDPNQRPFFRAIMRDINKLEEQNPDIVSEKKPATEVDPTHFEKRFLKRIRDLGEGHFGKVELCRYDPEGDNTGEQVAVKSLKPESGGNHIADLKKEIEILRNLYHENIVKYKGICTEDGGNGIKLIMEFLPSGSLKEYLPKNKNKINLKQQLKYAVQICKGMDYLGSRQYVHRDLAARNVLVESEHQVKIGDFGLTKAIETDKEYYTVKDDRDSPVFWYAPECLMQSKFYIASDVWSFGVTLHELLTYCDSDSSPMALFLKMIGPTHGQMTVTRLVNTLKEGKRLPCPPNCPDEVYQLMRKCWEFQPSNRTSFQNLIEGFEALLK
JAK2, sequence (O60674 whole entry, species assumed): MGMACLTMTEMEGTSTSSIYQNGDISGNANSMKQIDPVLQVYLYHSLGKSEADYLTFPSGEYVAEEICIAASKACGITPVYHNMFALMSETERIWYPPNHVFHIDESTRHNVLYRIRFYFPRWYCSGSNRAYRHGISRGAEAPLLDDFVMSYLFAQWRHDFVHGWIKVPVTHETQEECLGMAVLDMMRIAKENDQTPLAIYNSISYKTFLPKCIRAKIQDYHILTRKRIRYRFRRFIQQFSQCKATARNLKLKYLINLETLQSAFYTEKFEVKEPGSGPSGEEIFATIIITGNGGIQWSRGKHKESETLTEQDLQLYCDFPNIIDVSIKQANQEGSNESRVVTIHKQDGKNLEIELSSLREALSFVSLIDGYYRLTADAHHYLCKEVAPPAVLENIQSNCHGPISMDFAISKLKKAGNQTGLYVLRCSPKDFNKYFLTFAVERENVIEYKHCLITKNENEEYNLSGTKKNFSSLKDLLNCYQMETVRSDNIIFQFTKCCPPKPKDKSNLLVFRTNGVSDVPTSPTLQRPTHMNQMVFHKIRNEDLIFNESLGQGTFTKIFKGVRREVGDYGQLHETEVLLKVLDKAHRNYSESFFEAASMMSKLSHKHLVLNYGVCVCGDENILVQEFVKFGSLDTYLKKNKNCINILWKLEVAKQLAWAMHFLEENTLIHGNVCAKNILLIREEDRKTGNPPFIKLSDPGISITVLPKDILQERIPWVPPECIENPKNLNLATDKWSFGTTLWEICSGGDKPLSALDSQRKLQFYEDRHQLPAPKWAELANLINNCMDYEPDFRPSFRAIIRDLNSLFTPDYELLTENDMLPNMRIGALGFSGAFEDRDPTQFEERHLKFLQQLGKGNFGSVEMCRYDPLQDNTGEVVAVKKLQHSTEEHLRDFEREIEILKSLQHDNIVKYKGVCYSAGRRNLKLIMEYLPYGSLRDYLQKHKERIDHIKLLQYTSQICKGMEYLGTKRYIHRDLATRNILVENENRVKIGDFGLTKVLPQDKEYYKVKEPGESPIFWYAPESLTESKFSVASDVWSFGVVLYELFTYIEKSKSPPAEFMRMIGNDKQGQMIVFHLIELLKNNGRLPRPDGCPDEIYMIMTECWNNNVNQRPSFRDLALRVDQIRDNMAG
TYK2, sequence (P29597 whole entry, species assumed): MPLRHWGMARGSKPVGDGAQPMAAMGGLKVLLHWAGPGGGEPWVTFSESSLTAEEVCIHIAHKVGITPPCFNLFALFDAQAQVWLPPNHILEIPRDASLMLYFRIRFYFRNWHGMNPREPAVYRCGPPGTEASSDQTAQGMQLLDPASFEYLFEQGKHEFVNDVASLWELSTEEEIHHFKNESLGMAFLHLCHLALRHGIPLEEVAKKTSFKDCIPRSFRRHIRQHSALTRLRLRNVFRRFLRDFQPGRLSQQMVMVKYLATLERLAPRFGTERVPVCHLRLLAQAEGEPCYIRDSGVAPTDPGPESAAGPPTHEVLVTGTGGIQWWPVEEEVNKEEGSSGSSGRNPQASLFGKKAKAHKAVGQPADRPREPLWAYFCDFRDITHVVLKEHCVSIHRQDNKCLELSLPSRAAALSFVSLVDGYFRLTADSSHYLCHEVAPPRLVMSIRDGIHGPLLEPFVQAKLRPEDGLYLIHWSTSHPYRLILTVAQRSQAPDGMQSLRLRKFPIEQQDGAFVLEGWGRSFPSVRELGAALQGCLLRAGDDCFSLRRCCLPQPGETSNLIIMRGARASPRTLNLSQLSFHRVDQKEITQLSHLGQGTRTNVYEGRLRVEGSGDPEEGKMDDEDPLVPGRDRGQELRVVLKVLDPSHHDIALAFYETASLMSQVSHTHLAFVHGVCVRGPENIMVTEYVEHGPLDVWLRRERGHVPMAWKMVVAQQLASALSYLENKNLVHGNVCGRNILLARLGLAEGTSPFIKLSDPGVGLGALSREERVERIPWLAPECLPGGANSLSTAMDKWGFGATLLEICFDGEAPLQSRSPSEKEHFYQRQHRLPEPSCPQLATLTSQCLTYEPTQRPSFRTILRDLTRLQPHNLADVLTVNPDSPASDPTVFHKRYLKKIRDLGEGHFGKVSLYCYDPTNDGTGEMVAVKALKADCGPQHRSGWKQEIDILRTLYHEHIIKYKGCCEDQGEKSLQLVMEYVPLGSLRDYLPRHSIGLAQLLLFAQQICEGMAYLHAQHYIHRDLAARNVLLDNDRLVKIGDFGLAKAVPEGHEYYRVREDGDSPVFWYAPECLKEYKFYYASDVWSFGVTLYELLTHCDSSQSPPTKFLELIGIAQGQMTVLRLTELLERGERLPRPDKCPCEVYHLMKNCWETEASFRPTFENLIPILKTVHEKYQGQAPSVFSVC

As a reminder, the NOAEL is the highest dose or exposure tested at which no adverse effect was seen. By IC50 is commonly meant the concentration that inhibits the measured activity by half. As for `NC(=O)c1cnc(Nc2ccc3c(c2)OC[C@H]2CN(S(=O)(=O)C4CC4)CCN32)nc1NC1CC1` [Compound (I), (R)-4-(cyclopropylamino)-2-((3-(cyclopropylsulfonyl)-1,2,3,4,4a,5-hexahydrobenzo[b]pyrazolo[1,2-d][1,4]oxazin-8-yl)amino)pyrimidine-5-arboxamide], the “Safety window, dose method” value in data set [1] (Beagle dogs, NOAEL 28-day test vs rat effective dose) is reported as 3 fold; in data set [2] (rat effective dose (reference)), 1 fold. Also, in data set [1] (Beagle dogs, NOAEL 28-day test vs rat effective dose exposure), the “Safety window, exposure method” value was determined as 1 fold. Besides, the “Safety window of human equivalent dose of NOAEL relative to the human initial dose” value in data set [1] (beagle, dog, in vivo, 28 days) amounted to 14 fold. This molecule also gave a no observed adverse effect level (NOAEL) at 28 days in data set [1] (beagle, dog, in vivo, po) of 6 mg/kg/day. Also, the “NOAEL of repeated administration for 28 days” value in data set [1] (dog, in vivo, po) worked out at 3 mg/kg/time. In addition, the AUC was 3930 ng·h/mL in data set [1] (female, beagle, dog, in vivo, po, dogs ♀); 3300 ng·h/mL in data set [1] (male, beagle, dog, in vivo, po, dogs ♂); 4310 ng·h/mL in data set [2] (in vivo, rat effective dose 3 mg/kg/time BID). The “Human equivalent dose (based on 60 kg body weight)” value in data set [1] (of NOAEL for 28-day test of dogs) came to 210 mg. In addition, in data set [2] (rats), the “Effective dose for rats” value was 3 mg/kg/time bid. The Genotoxicity result in “Genotoxicity” is recorded as “no genotoxicity”. Further, the IC50 at JAK3 turned out to be 1.43 nM; at JAK2, 3.92 nM; at SYK it was 7.25 nM; at JAK1, 20 nM; on TYK2, 0.82 nM.

The values above are taken from patent US20240165123A1, “USE OF A COMPOUND CONTAINING A TRICYCLIC HETEROARYL GROUP” (CSPC Zhongqi Pharmaceutical Technology (Shijiazhuang) Co., …, priority 2021, published 2024).
